As usually defined, the melting point is the temperature of the solid-liquid transition.

SMILES strings stand for the structures.

`Cc1cc(C)c2c(c1C)OCC2c1ccc(C2OCCO2)cc1` (configuration not stated) displayed a melting point of 107 to 108 °C.

`Cc1cc(C)n(Cc2ccc(Cl)c(Cl)c2)c(=O)c1C#N` had a melting point of 139 to 141 °C.

The molecule `CCCOC(C)c1ccc2[nH]c3cnc(C(=O)OCC)c(COC)c3c2c1` (configuration not stated) gave a melting point of 189 to 190 °C.

As for `BrCCCCCCOc1ccc(OCc2ccccc2)cc1`, the melting point was in the range of 72 to 73 °C.

As for `CCc1cc2c(-c3ccccc3Cl)c(N)cnc2s1`, the melting point is 87 to 88 °C.

With `COC(=O)c1[nH]c(=O)[nH]c(=O)c1[N+](=O)[O-]`, the melting point was 229 to 230 °C.

Molecule `O=C1c2ccccc2-c2ccncc21` gave a melting point of 152 to 153 °C.

With `COC(=O)Nc1ccccc1CSc1ncc(C(F)(F)F)cc1Cl`, the melting point lay in the range of 111 to 113 °C.

`CC(C(=O)O)c1c(-c2ccccc2)nn(-c2ccccc2)c1-c1ccccc1` (configuration not stated): the melting point lay within 95 to 99 °C.

Take `Cc1ccc(Nc2nnc(Cc3ccncc3)c3ccccc23)cc1`: the melting point fell in the range of 152 to 153 °C.

As to `CCC(C)(c1ccc(O)c(C)c1)c1ccc(O)c(C)c1`, the melting point is 144 to 146 °C.

The molecule `CC(CO)N1CCN(c2ccccn2)CC1` (configuration not stated) yielded a melting point of 62 to 64 °C.

Regarding `COC(=O)C(Cc1ccc(OCc2ccccc2)cc1)NC(=O)c1cc2ccc(-c3ccc(Cl)cc3)cc2s1` (configuration not stated), the melting point lay within 200 to 201 °C.

As for `CC(=O)CCc1ccc2c(c1)COc1ccc(OCc3ccc4cc(F)c(Cl)cc4n3)cc1C2SCCC(=O)O` (configuration not stated), the melting point is 115 to 118 °C.

Molecule `CC(C)c1nc(CO)n(Cc2ccc(=O)[nH]c2)c1Sc1cc(Cl)cc(Cl)c1` displayed a melting point of 220 °C.

In the case of `CCn1cc(C(=O)O)c(=O)c2ccc(-n3cccc3)cc21`, the melting point fell in the range of 235 to 238 °C.

Take `N#Cc1ccc(N(Cc2ccc(OS(N)(=O)=O)c(Br)c2)n2cnnc2)cc1-c1cc2ccccc2o1`: the melting point fell in the range of 199 to 200 °C.

The molecule `CC(C)(C)OC(=O)NCc1cccc(C(=O)N[C@H]2C[C@H](C(=O)O)Nc3cc(Cl)cc(Cl)c32)c1` (relative stereo) registered a melting point of 192 to 193 °C.

The molecule `C=CS(=O)(=O)CCN1CCC(N2N=C(c3ccc(OC)c(OC)c3)[C@H]3CC=CC[C@H]3C2=O)CC1` displayed a melting point of 165 to 166 °C.

`O=C(Cl)c1cn(CCCCl)c(=O)c2cc(Cl)ccc12`: the melting point was 125 °C.

The molecule `COc1ccc(S(=O)(=O)Nc2cccnc2Nc2ccc(C(=O)O)cc2)cc1` displayed a melting point of 248 to 250 °C.

For the molecule `Cc1cc(OC23CC4CC(CC(C4)C2)C3)ccc1N`, the melting point lay within 143 to 145 °C.

In the case of `COC(=O)c1cc(NC(=O)c2cc(Br)ccc2Cl)ccc1-n1nc(C(F)(F)F)cc1C(F)(F)F`, the melting point was in the range of 75 to 76 °C.

`CCN(CC)CCNC(=O)c1cccc2nc3cc(I)ccc3nc12` yielded a melting point of 140 to 142 °C.

On to `O=C(c1ccc(F)cc1)C1CCN(CCCn2c(=O)[nH]c3ccccc32)CC1`, for which the melting point is 164 °C.

In the case of `Cn1cc(CC(NC(=O)CCCC(=O)O)C(=O)NCCCCNC(=N)N)c2ccccc21` (configuration not stated), the melting point is 291 °C.

As for `CCOC(=O)c1ncn2c1CN=C(c1ccccc1Cl)c1cc(Cl)ccc1-2`, the melting point is 215 to 220 °C.

For the molecule `Fc1ccc2onc(CCCN3CCN(c4cc5ccccc5cn4)CC3)c2c1`, the melting point lay within 130 to 133 °C.

Regarding `Cc1c(NC(=O)c2ccc(OC[C@@H]3CCCO3)cc2)ccc2cc(CN3CCC(C)(O)CC3)cnc12`, the melting point fell in the range of 169 to 174 °C.

In the case of `CC(=O)OC1=C(C=O)C=C2OCCC2C1` (configuration not stated), the melting point is 68 to 70 °C.

With `Fc1ccc(-c2ncncc2CCN2CCC(c3csc4cc(F)ccc34)CC2)cc1`, the melting point was in the range of 123 to 124 °C.

The molecule `COc1cc(OCc2nccs2)ccc1/C=C/c1cc(/C=C/c2ccc3cc[nH]c3c2)n[nH]1` returned a melting point of 229 to 237 °C.

The molecule `CCCCCCCCCCCCCCCCCCOc1cn(CCC)c(CO)cc1=O` displayed a melting point of 120 to 121 °C.

As to `N#Cc1ccc(-c2ccc(-c3ccn([C@H](CC(=O)OCc4ccccc4)C(=O)N[C@H](CO)Cc4ccccc4)c3)cc2)cc1`, the melting point was 149 to 150 °C.

Consider `Cc1cc(-c2ccc(C(F)(F)F)cc2)nc(-c2ccnc(-c3cccc(S(N)(=O)=O)c3)c2)n1`, for which the melting point turned out to be 218 °C.

As for `CCCC(C)(c1ccc(Oc2ccc([N+](=O)[O-])cc2)cc1)c1ccc(Oc2ccc([N+](=O)[O-])cc2)cc1`, the melting point lay in the range of 151 to 152 °C.

`CNc1ccc(F)cc1C(C)=O` showed a melting point of 43 to 45 °C.

For the molecule `CCOC(=N)C1(O)CCCc2ccccc21` (configuration not stated), the melting point fell in the range of 84 to 86 °C.

Molecule `O=C(O)c1cccc(NC(=O)C(COC2CCCCO2)NS(=O)(=O)c2ccc(Cl)cc2)c1` (configuration not stated) gave a melting point of 84 to 124 °C.

`CCc1nc2c(N)nc(C)c(C)c2n1CCOCCNC(=O)N1CCOCC1` came in with a melting point of 182 to 184 °C.

`O=C1c2ccccc2Cc2c1ccc(Cl)c2O` registered a melting point of 186 to 188 °C.

In turn, `OC1CCN(c2ccc(Br)cn2)CC1` gave a melting point of 91 to 93 °C.

`O=c1c(-c2ccccc2)cc(Cl)c2n1C=CSc1ccsc1-2`: the melting point lay within 149 to 151 °C.

Regarding `O=C1c2ccccc2C(=O)N1C[C@H]1COc2cc(Cl)ccc2O1`, the melting point was 126 to 127 °C.

Take `CC(C)CNC(=O)C=Cc1ccc(OCc2ccccc2)c([N+](=O)[O-])c1`: the melting point lay in the range of 166 to 167 °C.

`Cc1c(Sc2cccnc2)sc2ccc(Br)cc12` gave a melting point of 86 to 87 °C.

The molecule `CC(=O)NCCC1=CCc2ccc3c(c21)CCO3` yielded a melting point of 153 to 155 °C.

Take `O=C(CS(=O)(=O)Cc1cccs1)C12CC3CC(CC(C3)C1)C2`: the melting point lay within 95.5 to 98 °C.

Turning to `CCn1nnnc1C(C=CC=O)=C(c1ccc(F)cc1)c1ccc(F)cc1`, the melting point lay within 163 to 165 °C.

For the molecule `CCOC(=O)C(Cl)(Cl)CCCCCCCCCCCCS(=O)(=O)c1ccccc1`, the melting point was in the range of 69 to 71 °C.

`O=[N+]([O-])c1ccc(OCCCO)cc1CS(=O)(=O)c1cccc2ccccc12` had a melting point of 134 to 135 °C.

Molecule `Cc1cccnc1C(=O)c1[nH]c2cc(Cl)ccc2c1N` registered a melting point of 171 to 172 °C.

`O=C(Nc1ccc(F)c(F)c1)C12CC3CC(CC(C3)C1)C2` came in with a melting point of 168 to 170 °C.

The molecule `Cc1nccn1CC(C)C(=O)c1cn(C)c2ccccc12` (configuration not stated) registered a melting point of 205 to 207 °C.

On to `CCCNC1Cc2cccc3[nH]c(=O)n(c23)C1` (configuration not stated), for which the melting point was > 300 °C.

In turn, `CC(=O)OCCN1C(=O)N2CCOC2(c2ccccc2)c2cc(Cl)ccc21` (configuration not stated) showed a melting point of 121 to 123 °C.

Regarding `c1ccc(C(C2=NCCN2)c2ccccn2)cc1` (configuration not stated), the melting point was in the range of 134 to 136 °C.

`CCC1CCC(C)N(C(=O)CN(C(=O)CNC(=O)Nc2cccc(C)c2)c2ccccc2)C1` (configuration not stated): the melting point worked out at 158 °C.

Consider `O=C(Nc1ccc2ccc(Cl)nc2n1)c1ccccn1`, for which the melting point worked out at 319 °C.

On to `CCOC(=O)C(=NOCc1ccc(OCc2nc(-c3ccccc3)oc2C)cc1)c1ccc(OC)cc1`, for which the melting point fell in the range of 102 to 103 °C.

For `CCCOc1ccccc1-c1nc2cc(NC)ccc2c(=O)[nH]1`, the melting point is 204 to 205 °C.

Molecule `Cc1c(Cl)cc(C(=O)O)c(Cl)c1N` gave a melting point of 218 to 221 °C.

Molecule `CCOC(=O)C1=CC2(CCC1S(=O)(=O)Nc1ccc(F)cc1Cl)OC1COCC1O2` (configuration not stated) had a melting point of 227 to 228 °C.

Take `O=C(NNS(=O)(=O)c1ccccc1)c1cc2cc(Cl)ccc2o1`: the melting point is 181 to 183 °C.

`N#Cc1cnc(Nc2ccc(CCn3ccnc3)cc2)nc1-c1ccccc1` yielded a melting point of 210 to 211 °C.

Consider `N#CCN1C(=O)COc2cc(F)c(N3C(=O)C4=C(CCCC4)C3=O)cc21`, for which the melting point lay within 216 to 220 °C.

As to `Cc1cc(C)c2nc(C)c(NC(=O)Nc3ccc(F)cc3F)c(-c3ccccc3Cl)c2c1`, the melting point fell in the range of 234 to 235 °C.

The molecule `O=C(C(=O)c1cnn(CC(F)(F)F)c1)c1cccc(Br)c1` yielded a melting point of 66 to 67 °C.

`Cc1nc(Cl)cc(-c2ccc(F)cc2)n1` registered a melting point of 95 to 98 °C.

Turning to `O=C(NC(=O)c1cccs1)c1cncc([N+](=O)[O-])c1`, the melting point was found to be 187 °C.

For `CC(=O)CCN(CCNC(=O)OC(C)(C)C)c1nc2cc(Cl)ccc2o1`, the melting point was 145 to 148 °C.

Molecule `Fc1ccc(OCCCc2c[nH]cn2)cc1` had a melting point of 135 to 137 °C.

`COC(=O)c1ccc(Cl)cc1NC(=O)CSc1ccccc1C` showed a melting point of 88 to 89 °C.

`CC(=O)OC(CCC(C)(C)C)C(C)C1CCC2C3CC=C4CC(O)CCC4(C)C3CCC12C` (configuration not stated): the melting point is 210 to 212 °C.

`O=C(O)c1ccc2c(c1)C(=O)c1ccccc1OC2` registered a melting point of 264 to 269 °C.

Molecule `Cc1cccc(C)c1N1CCCN(c2c(C)cccc2C)C1=N` yielded a melting point of 68 to 71 °C.

`C=CC(=O)OC1CC(C)(C)N(OC2CCCCC2)C(C)(C)C1`: the melting point lay in the range of 49 to 52 °C.

Molecule `O=C(NCC1CCN(C[C@H]2COc3ccc(Cl)cc3O2)CC1)c1cccc2cccnc12` came in with a melting point of 51 to 54 °C.

The molecule `COC(=O)COc1ccc2cc(-c3cnc(-c4cn(Cc5ccccc5)c5ccccc45)o3)ccc2c1` gave a melting point of 204 to 207 °C.

Take `CCC(CC)n1cc(Cl)nc(N2CCc3cc(Cl)cc(Cl)c32)c1=O`: the melting point was in the range of 168 to 170 °C.

Consider `COc1ccc(S(=O)(=O)N(CCC(=O)N2CCC(C(=O)O)CC2)C(CC(C)C)C(=O)NO)cc1` (configuration not stated), for which the melting point is 118 to 120 °C.

For the molecule `O=C(O)CCNc1ccc(CNC(=O)C2Cc3ccccc3N2S(=O)(=O)c2ccc(-c3cccc(C(F)(F)F)c3)cc2)cc1` (configuration not stated), the melting point stood at 82 °C.

In the case of `COc1ccc(CN2C(=O)[C@@H](N3C(=O)c4ccccc4C3=O)[C@H]2c2ccc(Cl)cc2)c(OC)c1` (relative stereo), the melting point lay within 178 to 180 °C.

Molecule `CC(C)(C)Oc1ccc(C(=O)N[C@H]2CC[C@H](CCN3CCN(c4nccc5c4CCO5)CC3)CC2)cc1` returned a melting point of 200 °C.

On to `O=C(CCCCCCOc1ccccc1)c1nnc(COCc2ccccc2)o1`, for which the melting point was 61 to 63 °C.

In turn, `O=C(c1ccc([N+](=O)[O-])cc1Cl)N1CCCCc2sccc21` yielded a melting point of 131 to 134 °C.

Molecule `COC(=O)c1oc2c(OC)cccc2c1O` had a melting point of 114 °C.

The values are drawn from a melting point compilation (Tetko et al.; mined from patent text by program, amines drawn as free bases though some values may be those of a salt).
